From publication PMC3409642 (Pharmaceutical research, 2012)
“And” between values parts separate entries of the source, which are not always exact repeats. Identical values can stand only once.

Molecular target: T1, UGT1A9 (Homo sapiens, UniProt O60656)
T1 sequence (O60656 26-530): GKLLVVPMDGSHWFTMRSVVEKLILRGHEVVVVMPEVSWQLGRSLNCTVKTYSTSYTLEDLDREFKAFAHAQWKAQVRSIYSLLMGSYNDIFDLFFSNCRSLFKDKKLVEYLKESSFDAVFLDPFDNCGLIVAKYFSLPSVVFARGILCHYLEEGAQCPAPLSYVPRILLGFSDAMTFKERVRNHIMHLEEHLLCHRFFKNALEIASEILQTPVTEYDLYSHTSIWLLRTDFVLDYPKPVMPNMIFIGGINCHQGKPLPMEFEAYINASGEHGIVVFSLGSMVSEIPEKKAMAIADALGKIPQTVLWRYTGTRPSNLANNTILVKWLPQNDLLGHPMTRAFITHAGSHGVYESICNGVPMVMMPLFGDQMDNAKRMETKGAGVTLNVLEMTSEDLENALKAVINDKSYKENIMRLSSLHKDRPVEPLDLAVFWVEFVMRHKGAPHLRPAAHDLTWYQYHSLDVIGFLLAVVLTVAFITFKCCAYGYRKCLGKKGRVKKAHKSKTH
Assay: Kinetic profiling of glucuronidation by expressed human UGT1A9
Conditions: for Log (CLint) (Actual): log of experimental CLint (μl/mg/min)

SMILES | Log (CLint) (Actual) | other results
O=C(CCc1ccc(O)cc1)c1c(O)cc(O)cc1O [7.a, Phloretin] | 2.87 | Log (CLint) (Actual) (listed as 7.b): 3.17
N#C/C(=C\c1ccc(O)c(O)c1)C(=O)NCc1ccccc1 [23.a, Tyrphostin B42] | – | Vmax (pH 7.4): 3677 pmol/mg/min and 2008 pmol/mg/min
O=c1cc(-c2ccc(O)c(O)c2)oc2cc(O)ccc12 [41.a, 7,3′,4′-Trihydroxyflavone] | 3.08 | Log (CLint) (Actual) (listed as 41.b): 2.48; Log (CLint) (Actual) (listed as 41.c): 2.11
O=c1cc(-c2ccc(O)c(O)c2)oc2cc(O)cc(O)c12 [56.a, Luteolin] | 3.58 | Log (CLint) (Actual) (listed as 56.b): 3.32
COc1cc(-c2oc3cc(O)ccc3c(=O)c2O)cc(OC)c1OC [67.a, 3,7-Dihydroxy-3′,4′,5′-trimethoxyflavone] | 3.66 | –
O=c1c(O)c(-c2ccccc2)oc2cc(O)ccc12 [68.a, 3,7-Dihydroxyflavone] | 4.32 | Log (CLint) (Actual) (listed as 68.b): 3.13
COc1ccc(-c2oc3cc(O)ccc3c(=O)c2O)cc1OC [69.a, 3,7-Dihydroxy-3′,4′-dimethoxyflavone] | – | Log (CLint) (Actual) (listed as 69.b): 1.00
O=c1c(O)c(-c2ccc(O)c(O)c2)oc2cc(O)ccc12 [84.a, Fisetin] | 3.38 | Log (CLint) (Actual) (listed as 84.b): 3.55; Log (CLint) (Actual) (listed as 84.c): 3.49
O=c1c(O)c(-c2ccc(O)cc2)oc2cc(O)cc(O)c12 [88.a, Kaempferol] | 3.78 | Log (CLint) (Actual) (listed as 88.b): 2.34
O=c1c(O)c(-c2cc(O)c(O)c(O)c2)oc2cc(O)cc(O)c12 [90.a, Myricetin] | 2.90 | Log (CLint) (Actual) (listed as 90.b): 3.36; Log (CLint) (Actual) (listed as 90.c): 3.69
O=c1c(O)c(-c2ccc(O)c(O)c2)oc2cc(O)cc(O)c12 [91.a, Quercetin] | 3.97 | Log (CLint) (Actual) (listed as 91.b): 3.32; Log (CLint) (Actual) (listed as 91.c): 3.65
O=c1c(O)c(-c2ccc(O)cc2)oc2cc(O)ccc12 [92.a, Resokaempferol] | 3.86 | Log (CLint) (Actual) (listed as 92.b): 2.63
COc1cc(-c2oc3cc(O)cc(O)c3c(=O)c2O)cc(OC)c1O [94.a, Syringetin] | 3.87 | Log (CLint) (Actual) (listed as 94.b): 2.26
O=C(O)/C=C/c1ccc(O)c(O)c1 [97.a, Caffeic Acid] | 1.04 | Log (CLint) (Actual) (listed as 97.b): 0.30
Nc1ccc(C(=O)O)c(O)c1 [aminosalicylic acid, reference compound] | – | glucuronide metabolite formation on incubation with UGT1A9 (non-substrate) (incubating compound with UGT1A9): no metabolite can be detected
Oc1cc(O)c2c(c1)O[C@H](c1cc(O)c(O)c(O)c1)[C@H](O)C2 [compound 2, (−)-Epigallocatechin] | 1.58 | –
O=C(/C=C/c1ccccc1O)c1ccccc1 [compound 3, 2-Hydroxychalcone] | 3.38 | –
O=C(/C=C/c1ccc(O)cc1)c1ccccc1 [compound 4, 4-Hydroxychalcone] | 1.53 | –
O=C(/C=C/c1ccccc1)c1ccc(O)cc1 [compound 6, 4′-Hydroxychalcone] | 2.29 | –
O=c1ccoc2cc(O)ccc12 [compound 8, 7-Hydroxychromone] | 0.91 | –
O=c1oc2cc(O)ccc2c(-c2ccccc2)c1-c1ccccc1 [compound 9, 3,4-Diphenyl-7-hydroxycoumarin] | 1.61 | –
Cc1cc(=O)oc2cc(O)ccc12 [compound 10, 4-Methylumbelliferone] | 2.48 | –
Cc1ccc2oc(=O)cc(O)c2c1 [compound 11, 4-Hydroxy-6-methylcoumarin] | 0.59 | –
COc1cc2oc(=O)cc(-c3ccccc3)c2cc1O [compound 12, 6-Hydroxy-7-methoxyl-4-phenylcoumarin] | 1.07 | –
CC(=O)CC(c1ccccc1)c1c(O)c2cccc(O)c2oc1=O (centres unmarked) [compound 13, 8-Hydroxywarfarin] | 1.40 | –
COc1cc2ccc(=O)oc2cc1O [compound 14, Scopoletin] | 2.28 | –
